Experiment: mn = molality of the nth substance listed, in mol/kg
Settings: 100 kPa, Liquid

CCCCn1cc[n+](C)c1.F[B-](F)(F)F [1-butyl-3-methylimidazolium tetrafluoroborate] + CN(C)C=O
Alternating current cell with electrodes
Settings	molar conductivity [S·m2/mol]
283.15 K, m1 = 5.542e-05	0.007204
283.15 K, m1 = 0.0002915	0.00709
283.15 K, m1 = 0.0004895	0.007031
283.15 K, m1 = 0.0006942	0.006981
283.15 K, m1 = 0.001153	0.006893
283.15 K, m1 = 0.001938	0.006777
283.15 K, m1 = 0.002927	0.006662
283.15 K, m1 = 0.003888	0.00657
283.15 K, m1 = 0.005903	0.006415
283.15 K, m1 = 0.008004	0.006288
283.15 K, m1 = 0.009964	0.006189
283.15 K, m1 = 0.012	0.0061
283.15 K, m1 = 0.01485	0.00599
288.15 K, m1 = 0.0001289	0.007713
288.15 K, m1 = 0.0002628	0.007644
288.15 K, m1 = 0.000427	0.007581
288.15 K, m1 = 0.0006069	0.007526
288.15 K, m1 = 0.001022	0.007427
288.15 K, m1 = 0.001697	0.007306
288.15 K, m1 = 0.002546	0.007188
288.15 K, m1 = 0.003454	0.007086
288.15 K, m1 = 0.005179	0.006929
288.15 K, m1 = 0.007043	0.006794
288.15 K, m1 = 0.008772	0.006689
288.15 K, m1 = 0.01186	0.006533
288.15 K, m1 = 0.01492	0.006408
293.15 K, m1 = 0.000111	0.00828
293.15 K, m1 = 0.0002943	0.008172
293.15 K, m1 = 0.0004483	0.008108
293.15 K, m1 = 0.000694	0.008027
293.15 K, m1 = 0.001218	0.007899
293.15 K, m1 = 0.001996	0.007759
293.15 K, m1 = 0.002935	0.007628
293.15 K, m1 = 0.003937	0.007515
293.15 K, m1 = 0.005916	0.007336
293.15 K, m1 = 0.007933	0.00719
293.15 K, m1 = 0.01009	0.007059
293.15 K, m1 = 0.01201	0.00696
293.15 K, m1 = 0.01495	0.006833
298.15 K, m1 = 0.0001246	0.008822
298.15 K, m1 = 0.0003199	0.0087
298.15 K, m1 = 0.000527	0.008612
298.15 K, m1 = 0.000691	0.008555
298.15 K, m1 = 0.001175	0.008424
298.15 K, m1 = 0.001926	0.008273
298.15 K, m1 = 0.002929	0.008121
298.15 K, m1 = 0.003956	0.007996
298.15 K, m1 = 0.005953	0.007802
298.15 K, m1 = 0.008044	0.00764
298.15 K, m1 = 0.009999	0.007512
298.15 K, m1 = 0.01205	0.007397
298.15 K, m1 = 0.0149	0.007265
303.15 K, m1 = 0.0001037	0.00939
303.15 K, m1 = 0.0002814	0.009262
303.15 K, m1 = 0.000494	0.00916
303.15 K, m1 = 0.0007407	0.009069
303.15 K, m1 = 0.001192	0.00894
303.15 K, m1 = 0.001886	0.00879
303.15 K, m1 = 0.002913	0.008621
303.15 K, m1 = 0.003912	0.008489
303.15 K, m1 = 0.006107	0.008261
303.15 K, m1 = 0.007974	0.008107
303.15 K, m1 = 0.009993	0.007966
303.15 K, m1 = 0.01195	0.007849
303.15 K, m1 = 0.01492	0.007699
308.15 K, m1 = 5.763e-05	0.009991
308.15 K, m1 = 0.0002447	0.009826
308.15 K, m1 = 0.0004495	0.009716
308.15 K, m1 = 0.0006821	0.009621
308.15 K, m1 = 0.001183	0.009467
308.15 K, m1 = 0.001933	0.009295
308.15 K, m1 = 0.002911	0.009124
308.15 K, m1 = 0.003919	0.008981
308.15 K, m1 = 0.005927	0.008756
308.15 K, m1 = 0.008008	0.008573
308.15 K, m1 = 0.009997	0.008426
308.15 K, m1 = 0.01201	0.008298
308.15 K, m1 = 0.0149	0.00814
313.15 K, m1 = 9.063e-05	0.0105
313.15 K, m1 = 0.0002952	0.01034
313.15 K, m1 = 0.0004868	0.01024
313.15 K, m1 = 0.0007015	0.01015
313.15 K, m1 = 0.001177	0.009997
313.15 K, m1 = 0.001951	0.009811
313.15 K, m1 = 0.002946	0.009626
313.15 K, m1 = 0.003906	0.009482
313.15 K, m1 = 0.005912	0.009242
313.15 K, m1 = 0.007925	0.009053
313.15 K, m1 = 0.00996	0.008895
313.15 K, m1 = 0.01199	0.008759
313.15 K, m1 = 0.01511	0.008574
318.15 K, m1 = 9.401e-05	0.01103
318.15 K, m1 = 0.0002791	0.01089
318.15 K, m1 = 0.0004526	0.01079
318.15 K, m1 = 0.0006468	0.01071
318.15 K, m1 = 0.001144	0.01054
318.15 K, m1 = 0.001896	0.01035
318.15 K, m1 = 0.0029	0.01015
318.15 K, m1 = 0.003892	0.009988
318.15 K, m1 = 0.005917	0.00973
318.15 K, m1 = 0.00798	0.009527
318.15 K, m1 = 0.009945	0.009368
318.15 K, m1 = 0.01195	0.009227
318.15 K, m1 = 0.01488	0.009038

CCn1cc[n+](C)c1.F[B-](F)(F)F [1-ethyl-3-methylimidazolium tetrafluoroborate] + CN(C)C=O
Direct current cell with electrodes
Settings	molar conductivity [S·m2/mol]
283.15 K, m1 = 0.0001021	0.007524
283.15 K, m1 = 0.0002894	0.00744
283.15 K, m1 = 0.0004617	0.007387
283.15 K, m1 = 0.000707	0.007326
283.15 K, m1 = 0.001158	0.007238
283.15 K, m1 = 0.001876	0.007128
283.15 K, m1 = 0.002909	0.007001
283.15 K, m1 = 0.00391	0.006899
283.15 K, m1 = 0.006046	0.006724
283.15 K, m1 = 0.008043	0.006596
283.15 K, m1 = 0.01002	0.006492
283.15 K, m1 = 0.01201	0.006403
283.15 K, m1 = 0.0149	0.006286
288.15 K, m1 = 9.159e-05	0.008075
288.15 K, m1 = 0.0002695	0.007983
288.15 K, m1 = 0.0005098	0.007901
288.15 K, m1 = 0.0006932	0.007851
288.15 K, m1 = 0.001168	0.007746
288.15 K, m1 = 0.001915	0.007619
288.15 K, m1 = 0.002887	0.007489
288.15 K, m1 = 0.003934	0.007374
288.15 K, m1 = 0.005914	0.007199
288.15 K, m1 = 0.007975	0.007057
288.15 K, m1 = 0.009937	0.006944
288.15 K, m1 = 0.01205	0.00684
288.15 K, m1 = 0.01487	0.006715
293.15 K, m1 = 0.0001225	0.008604
293.15 K, m1 = 0.0002931	0.008516
293.15 K, m1 = 0.0004907	0.008442
293.15 K, m1 = 0.0007255	0.008372
293.15 K, m1 = 0.001177	0.008263
293.15 K, m1 = 0.001892	0.00813
293.15 K, m1 = 0.002911	0.007981
293.15 K, m1 = 0.003932	0.00786
293.15 K, m1 = 0.005979	0.007668
293.15 K, m1 = 0.007979	0.00752
293.15 K, m1 = 0.009955	0.007398
293.15 K, m1 = 0.01193	0.007292
293.15 K, m1 = 0.0148	0.007155
298.15 K, m1 = 0.0001133	0.009167
298.15 K, m1 = 0.0002704	0.009077
298.15 K, m1 = 0.000473	0.008993
298.15 K, m1 = 0.0006719	0.008926
298.15 K, m1 = 0.001151	0.008798
298.15 K, m1 = 0.001932	0.008639
298.15 K, m1 = 0.00291	0.008486
298.15 K, m1 = 0.003882	0.008361
298.15 K, m1 = 0.005957	0.008152
298.15 K, m1 = 0.007912	0.007996
298.15 K, m1 = 0.009961	0.007859
298.15 K, m1 = 0.012	0.007742
298.15 K, m1 = 0.01485	0.007598
303.15 K, m1 = 0.0001433	0.009709
303.15 K, m1 = 0.0002976	0.009622
303.15 K, m1 = 0.000507	0.009532
303.15 K, m1 = 0.0007136	0.00946
303.15 K, m1 = 0.001172	0.00933
303.15 K, m1 = 0.001894	0.009172
303.15 K, m1 = 0.002913	0.008999
303.15 K, m1 = 0.003926	0.008861
303.15 K, m1 = 0.005879	0.008649
303.15 K, m1 = 0.007956	0.008471
303.15 K, m1 = 0.009924	0.00833
303.15 K, m1 = 0.01202	0.0082
303.15 K, m1 = 0.01489	0.00805
308.15 K, m1 = 0.0001026	0.01031
308.15 K, m1 = 0.0003641	0.010155
308.15 K, m1 = 0.0005016	0.010095
308.15 K, m1 = 0.0006664	0.010033
308.15 K, m1 = 0.001147	0.009884
308.15 K, m1 = 0.001947	0.009697
308.15 K, m1 = 0.002894	0.009525
308.15 K, m1 = 0.003883	0.009379
308.15 K, m1 = 0.00584	0.009149
308.15 K, m1 = 0.007991	0.008948
308.15 K, m1 = 0.00998	0.008792
308.15 K, m1 = 0.01192	0.008661
308.15 K, m1 = 0.01486	0.008494
313.15 K, m1 = 9.519e-05	0.010895
313.15 K, m1 = 0.0002775	0.010772
313.15 K, m1 = 0.000472	0.010677
313.15 K, m1 = 0.0006836	0.010592
313.15 K, m1 = 0.001159	0.010438
313.15 K, m1 = 0.001948	0.010242
313.15 K, m1 = 0.002909	0.010057
313.15 K, m1 = 0.003934	0.009897
313.15 K, m1 = 0.005955	0.009647
313.15 K, m1 = 0.007964	0.009449
313.15 K, m1 = 0.009905	0.009289
313.15 K, m1 = 0.01192	0.009147
313.15 K, m1 = 0.0152	0.008968
318.15 K, m1 = 0.0001002	0.011475
318.15 K, m1 = 0.0002722	0.011357
318.15 K, m1 = 0.0004294	0.011275
318.15 K, m1 = 0.0006853	0.011165
318.15 K, m1 = 0.001173	0.011
318.15 K, m1 = 0.001899	0.010808
318.15 K, m1 = 0.002947	0.010593
318.15 K, m1 = 0.003909	0.010433
318.15 K, m1 = 0.005941	0.010163
318.15 K, m1 = 0.007935	0.009952
318.15 K, m1 = 0.009999	0.00977
318.15 K, m1 = 0.012	0.009623
318.15 K, m1 = 0.01494	0.009458

Reference: the NIST ThermoML archive (doi:10.1021/je201014c)
